# PMC12203311, “Design, synthesis, in silico and in vitro evaluation of pyrrole–indole hybrids as dual tubulin and aromatase inhibitors with potent anticancer activities” (RSC Advances, 2025)
# Assays:
# [1] = Cytotoxicity MTT assay, L929; assay type: cell-based, mouse; conditions: mouse, L929 fibroblast cells; MTT, 48 hours
# Procedure, shortened: (§1)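 Seed 10 000 cells per well and let them grow overnight. Treat with compounds in medium for 48 h at 37 °C under 5% CO2. Replace medium with MTT at 0.5 mg mL^−1 for 3 h, dissolve formazan in DMSO, measure at 570 nm, normalise to DMSO control.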
# [2] = system: L929 normal mouse fibroblast cell line; assay: Cytotoxicity MTT assay, L929; assay type: cell-based; conditions: IC50 (L929)/IC50 (T47D)
# Procedure, shortened: as §1
# SNB-19 = assay: NCI60 five-dose screen; assay type: cell-based; conditions: Homo sapiens, SNB-19, CNS cancer; for CC50: read-out: LC50 (the source's name)
# NCI-H322M = assay: NCI60 five-dose screen; assay type: cell-based; conditions: Homo sapiens, NSC lung cancer; for CC50: read-out: LC50 (the source's name)
# UACC-62 = assay: NCI60 five-dose screen; assay type: cell-based; conditions: Homo sapiens, UACC-62, melanoma; for CC50: read-out: LC50 (the source's name)
# 786-0 = assay: NCI60 five-dose screen; assay type: cell-based; conditions: Homo sapiens, 786-0, renal cancer; for CC50: read-out: LC50 (the source's name)
# KM12 = assay: NCI60 five-dose screen; assay type: cell-based; conditions: Homo sapiens, KM12, colon cancer; for CC50: read-out: LC50 (the source's name)
# SK-MEL-28 = assay: NCI60 five-dose screen; assay type: cell-based; conditions: Homo sapiens, SK-MEL-28, melanoma; for CC50: read-out: LC50 (the source's name)
# A549/ATCC = assay: NCI60 five-dose screen; assay type: cell-based; conditions: Homo sapiens, NSC lung cancer; for CC50: read-out: LC50 (the source's name)
# SNB-75 = assay: NCI60 five-dose screen; assay type: cell-based; conditions: Homo sapiens, SNB-75, CNS cancer; for CC50: read-out: LC50 (the source's name)
# NCI/ADR-RES = assay: NCI60 five-dose screen; assay type: cell-based, human; conditions: Homo sapiens, ovarian cancer; for CC50: read-out: LC50 (the source's name)
# TK-10 = assay: NCI60 five-dose screen; assay type: cell-based; conditions: Homo sapiens, TK-10, renal cancer; for CC50: read-out: LC50 (the source's name)
# EKVX = assay: NCI60 five-dose screen; assay type: cell-based; conditions: Homo sapiens, NSC lung cancer; for CC50: read-out: LC50 (the source's name)
# ACHN = assay: NCI60 five-dose screen; assay type: cell-based; conditions: Homo sapiens, renal cancer; for CC50: read-out: LC50 (the source's name)
# Human CYP19 (aromatase) = molecular target: T1, Human CYP19 (aromatase) (Homo sapiens, UniProt P11511); assay: Aromatase inhibition assay (DBF fluorometric substrate); assay type: biochemical; conditions: active defined as IC50 < 12.5 µM
# T1 construct: purchased GENTEST, Woburn, MA 456260; host or cells: baculovirus/insect cells
# T1 sequence (P11511 1-503): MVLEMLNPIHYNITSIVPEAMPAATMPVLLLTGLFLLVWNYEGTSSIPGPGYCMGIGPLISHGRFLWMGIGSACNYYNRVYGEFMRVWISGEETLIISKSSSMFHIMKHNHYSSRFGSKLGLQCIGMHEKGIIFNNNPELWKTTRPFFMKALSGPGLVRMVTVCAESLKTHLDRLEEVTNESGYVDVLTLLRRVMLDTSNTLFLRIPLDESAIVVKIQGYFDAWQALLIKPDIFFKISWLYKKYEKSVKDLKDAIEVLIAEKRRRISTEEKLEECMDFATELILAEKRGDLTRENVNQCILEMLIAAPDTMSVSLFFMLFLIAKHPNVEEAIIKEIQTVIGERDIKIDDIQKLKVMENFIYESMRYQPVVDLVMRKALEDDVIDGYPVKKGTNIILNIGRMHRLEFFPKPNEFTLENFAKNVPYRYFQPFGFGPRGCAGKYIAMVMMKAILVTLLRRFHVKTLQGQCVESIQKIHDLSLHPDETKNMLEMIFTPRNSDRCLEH
# Procedure, shortened: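 Insect-cell-expressed human CYP19 Supersomes with oxidoreductase turned over DBF for 30 min at 37 °C after a 10 min 37 °C pre-incubation with cofactor. NaOH quench; product measured by fluorescence, excitation 490 nm, emission 530 nm.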
# SF-539 = assay: NCI60 five-dose screen; assay type: cell-based; conditions: Homo sapiens, SF-539, CNS cancer; for CC50: read-out: LC50 (the source's name)
# NCI-H522 = assay: NCI60 five-dose screen; assay type: cell-based; conditions: Homo sapiens, NCI-H522, NSC lung cancer; for CC50: read-out: LC50 (the source's name)
# SK-MEL-5 = assay: NCI60 five-dose screen; assay type: cell-based, human; conditions: Homo sapiens; for CC50: SK-MEL-5, SK-MEL-5, melanoma, read-out: LC50 (the source's name); for GI50: SK-MEL-5, melanoma
# OVCAR-4 = assay: NCI60 five-dose screen; assay type: cell-based; conditions: Homo sapiens, OVCAR-4, ovarian cancer; for CC50: read-out: LC50 (the source's name)
# COLO 205 = assay: NCI60 five-dose screen; assay type: cell-based, human; conditions: Homo sapiens; for CC50: COLO 205, COLO 205, colon cancer, read-out: LC50 (the source's name); for GI50: COLO 205, colon cancer
# K-562 = assay: NCI60 five-dose screen; assay type: cell-based; conditions: Homo sapiens, K562, K-562, leukemia; for CC50: read-out: LC50 (the source's name)
Structure (SMILES),IC50 at 48 h [1],Selectivity index (SI) [2],GI50 (SNB-19),CC50 (SNB-19),GI50 (NCI-H322M),CC50 (NCI-H322M),GI50 (UACC-62),CC50 (UACC-62),GI50 (786-0),CC50 (786-0),GI50 (KM12),CC50 (KM12),GI50 (SK-MEL-28),CC50 (SK-MEL-28),GI50 (A549/ATCC),CC50 (A549/ATCC),GI50 (SNB-75),CC50 (SNB-75),GI50 (NCI/ADR-RES),GI50 (TK-10),also measured
"O=C(N/N=C/c1[nH]ccc1Cl)c1[nH]c2ccc(Br)cc2c1-c1ccccc1 [Derivative 3g, (E)-5-Bromo-N′-((3-chloro-1H-pyrrol-2-yl)methylene)-3-phenyl-1H-indole-2-carbohydrazide]",20.1 ± 10.3 µM,2.45,1.06 µM,35.4 µM,3.14 µM,48.8 µM,0.411 µM,37 µM,2.58 µM,50.2 µM,0.488 µM,34.6 µM,0.909 µM,47.5 µM,0.838 µM,53.4 µM,0.325 µM,38.6 µM,0.219 µM,7.16 µM,CC50 (NCI/ADR-RES): 10.5 µM; CC50 (TK-10): 49.5 µM; GI50 (EKVX): 2.66 µM; CC50 (EKVX): 38.1 µM; GI50 (ACHN): 0.627 µM; CC50 (ACHN): 34.5 µM; IC50 (Human CYP19 (aromatase)): 2.6 ± 0.5 µM; GI50 (SF-539): 0.378 µM; CC50 (SF-539): 18.5 µM; GI50 (NCI-H522): 0.233 µM; CC50 (NCI-H522): 20.4 µM; CC50 (SK-MEL-5): 63 µM; GI50 (SK-MEL-5): 0.427 µM; GI50 (OVCAR-4): 3.09 µM; CC50 (OVCAR-4): 43.5 µM; CC50 (COLO 205): 40.3 µM; GI50 (COLO 205): 1.66 µM; GI50 (K-562): 0.413 µM; CC50 (K-562): > 100 µM
"O=C(N/N=C/c1cc(Cl)c[nH]1)c1[nH]c2ccc(Br)cc2c1-c1ccccc1 [Derivative 3h, (E)-5-Bromo-N′-((4-chloro-1H-pyrrol-2-yl)methylene)-3-phenyl-1H-indole-2-carbohydrazide]",53.7 ± 30.4 µM,22.4,0.638 µM,61.9 µM,0.768 µM,92.3 µM,0.559 µM,66.3 µM,0.459 µM,39.8 µM,0.328 µM,20.7 µM,0.582 µM,47.9 µM,0.43 µM,47.4 µM,0.247 µM,75.5 µM,0.2 µM,3.91 µM,CC50 (TK-10): 83.2 µM; GI50 (EKVX): 1.28 µM; CC50 (EKVX): > 100 µM; GI50 (ACHN): 0.493 µM; CC50 (ACHN): 32.1 µM; IC50 (Human CYP19 (aromatase)): 1.8 ± 0.4 µM; GI50 (SF-539): 0.231 µM; CC50 (SF-539): 22.1 µM; GI50 (NCI-H522): 0.211 µM; CC50 (NCI-H522): > 100 µM; CC50 (SK-MEL-5): 3.08 µM; GI50 (SK-MEL-5): 0.228 µM; GI50 (OVCAR-4): 0.555 µM; CC50 (OVCAR-4): 34.1 µM; CC50 (COLO 205): 1.88 µM; GI50 (COLO 205): 0.251 µM; GI50 (K-562): 0.234 µM; CC50 (K-562): 5.64 µM
"CCOC(=O)c1c[nH]c(/C=N/NC(=O)c2[nH]c3ccc(Br)cc3c2-c2ccccc2)c1 [Derivative 3j, Ethyl (E)-5-((2-(5-bromo-3-phenyl-1H-indole-2-carbonyl)hydrazono)methyl)-1H-pyrrole-3-carboxylate]",12.2 ± 1 µM,1.17,4.51 µM,46.1 µM,5.63 µM,50 µM,2.92 µM,42.6 µM,3.29 µM,44.7 µM,2.21 µM,33.9 µM,4.56 µM,45.8 µM,2.7 µM,51.8 µM,1.09 µM,35.8 µM,1.89 µM,7.35 µM,CC50 (NCI/ADR-RES): 10.4 µM; CC50 (TK-10): 46.2 µM; GI50 (EKVX): 4.57 µM; CC50 (EKVX): 43.1 µM; GI50 (ACHN): 3.39 µM; CC50 (ACHN): 36.4 µM; IC50 (Human CYP19 (aromatase)): 1.3 ± 0.4 µM; GI50 (SF-539): 2.26 µM; CC50 (SF-539): 19.4 µM; GI50 (NCI-H522): 2.27 µM; CC50 (NCI-H522): 33 µM; CC50 (SK-MEL-5): 10.1 µM; GI50 (SK-MEL-5): 1.44 µM; GI50 (OVCAR-4): 2.28 µM; CC50 (OVCAR-4): 34.8 µM; CC50 (COLO 205): 55.2 µM; GI50 (COLO 205): 2.49 µM; GI50 (K-562): 1.9 µM; CC50 (K-562): 57.1 µM
